Test results taken from patent US8372836B2, “Spray dried formulation” (Bend Research, Inc., priority 2006, dated 2013).
Values after ≈ are worked out from the molar mass of the structure shown. Read-outs that look alike come from different tables or passages of the source.

Assays:
[1] = Aqueous solubility of neutral form of drug (MFD or PBS solution, pH 6.5); assay type: physicochemical
Experimental: Solubility may be measured at 25° C. in water or a phosphate buffered saline (PBS) solution adjusted to a pH between 6 and 7.
An appropriate PBS solution is an aqueous solution comprising 20 mM sodium phosphate (Na2HPO4), 47 mM potassium phosphate (KH2PO4), 87 mM NaCl, and 0.2 mM KCl, adjusted to pH 6.5 with NaOH. An appropriate MFD solution is the same PBS solution wherein there is also present 7.3 mM sodium taurocholic acid and 1.4 mM of 1-palmitoyl-2-oleyl-sn-glycero-3-phosphocholine. In particular, a composition of the present invention may be dissolution-tested by adding it to MFD or PBS solution and agitating to promote dissolution.

[2] = In vitro dissolution test of Drug 3 dispersion in MFD solution; assay type: physicochemical; conditions: dissolved Drug 3, initial 90 min; MFD solution pH 6.5, 37° C., 200 μgA/mL dosed
Acidic pKa = assay type: physicochemical; conditions: for pKa: distilled water
Description: Here, the term pKa is used in its traditional form, the pKa being the negative logarithm of the acid ionization constant.

[3] = Solubility in volatile organic solvents; assay type: physicochemical; conditions: for solubility: organic solvent or mixture
Description: The drug is poorly soluble in volatile organic solvents. By “volatile organic solvent” is meant a solvent selected from the group consisting of acetone, methanol, tetrahydrofuran, ethyl acetate, mixtures of any one of these with water, and mixtures of these with each other. […] As used herein, the solubility is assumed to be measured at ambient temperature and pressure.

[4] = dissolved Drug 3; dispersion pre-suspended in 0.5 wt % Methocel A + 15 mg/mL HPMCAS-HF in PBS, then MFD; 200 μgA/mL dosed; Control 3 as in Example 5 test
Experimental: The test was run in duplicate. The tubes were placed in a 37° C. temperature-controlled chamber, and 1.8 mL MFD solution at pH 6.5 and 290 mOsm/kg, was added to each respective tube. The samples were quickly mixed using a vortex mixer for about 60 seconds. The samples were centrifuged at 13,000 G at 37° C. for 1 minute. The resulting supernatant solution was then sampled and diluted 1:6 (by volume) with methanol and analyzed by high-performance liquid chromatography (HPLC). HPLC analysis was performed using a Waters Symmetry C8 column. The mobile phase consisted of 45% 20 mM KH2PO4, adjusted to pH 3, 30% acetonitrile, and 25% methanol. UV absorbance was measured at 270 nm. The contents of each tube were mixed on the vortex mixer and allowed to stand undisturbed at 37° C. until the next sample was taken. Samples were collected at 4, 10, 20, 40, 90, and 1200 minutes.
The solution was then analyzed for dissolved Drug 3 concentration versus time, as previously described.

[5] = In vitro dissolution test of Drug 1 dispersions in MFD solution; assay type: physicochemical; conditions: 37° C.
Experimental: For these tests, suspensions were formed by adding a sufficient quantity of the dispersions of Example 1 or Example 2 to water containing 0.5 wt % Methocel Type A such that each suspension contained 7.2 mgA/mL Drug 1. Next, a 50 μL sample of each suspension was added to microcentrifuge tubes in duplicate. […] HPLC analysis was performed using an Zorbax RX-C18 4.6×75 mm […] column, with a mobile phase of 63/37 v/v aqueous 0.1 wt % trifluoroacetic acid/acetonitrile, and UV absorbance measured at 220 nm.
The concentrations of dissolved Drug 1 obtained in these samples were used to determine the maximum dissolved concentration of Drug 1 in solution during the first ninety minutes of the test (MDC90), the area under the concentration-versus-time curve during the initial ninety minutes (“AUC90”), and the concentration of Drug 1 at 1200 minutes (“C1200”).

[6] = In vitro dissolution test of Drug 2 dispersion in MFD solution; assay type: physicochemical; conditions: 37° C.
Experimental: Next, a 50 μL sample of this suspension was added to microcentrifuge tubes in duplicate. The tubes were placed in a 37° C. temperature-controlled chamber, and 1.75 mL MFD solution was added to each respective tube. […] The samples were quickly mixed using a vortex mixer for about 60 seconds. The samples were centrifuged at 13,000 G at 37° C. for 1 minute. The resulting supernatant solution was then sampled and diluted 1:6 (by volume) with methanol and then analyzed by high-performance liquid chromatography (HPLC). HPLC analysis was performed using an Agilent RX-C18 4.6×75 mm 3.5 μM column, with a mobile phase of 65/35 v/v 0.1 wt % trifluoroacetic acid/acetonitrile, and UV absorbance measured at 220 nm. The contents of each respective tube were mixed on the vortex mixer and allowed to stand undisturbed at 37° C. until the next sample was taken. Samples were collected at 4, 10, 20, 40, 90, and 1200 minutes.

SMILES | solubility ([1]; phosphate buffered saline, aqueous buffer, PBS pH 6.5, read-out: solubility in phosphate buffered saline solution at pH of 6.5) | AUC90 [2] | MDC90 [2] | acidic pKa (Acidic pKa) | solubility ([3]; THF, 25° C., neutral form, read-out: solubility in THF at 25° C.) | solubility ([3]; acetone, 25° C., neutral form, read-out: solubility in acetone at 25° C.) | solubility ([3]; methanol, 25° C., neutral form, read-out: solubility in methanol at 25° C.) | AUC90 [4] | MDC90 [4] | solubility ([1]; fassif, MFD solution pH 6.5, read-out: solubility in a pH 6.5 MFD solution) | pKa (Acidic pKa) | solubility ([3]; acetone, read-out: solubility in acetone) | solubility in methanol ([3]; crystalline neutral form, methanol) | solubility ([3]; methanol, read-out: solubility in methanol) | C1200 ([5]; Drug 1 concentration at 1200 minutes) | MDC90 ([5]; dissolved Drug 1, first 90 min, 200 μgA/mL dosed) | AUC90 ([5]; dissolved Drug 1, initial 90 min, 200 μgA/mL dosed) | C1200 ([6]; Drug 2 concentration at 1200 minutes) | AUC90 ([6]; dissolved Drug 2, initial 90 min, 200 μgA/mL dosed)
Cc1c(S(=O)(=O)c2ccc(=O)[nH]n2)oc2ccc(Cl)cc12 [Drug 3, 6-(5-chloro-3-methyl-benzofuran-2-sulfonyl)-2H-pyridazin-3-one] | < 1 µg/mL | 540 min*μgA/mL | 8 μgA/mL | 6.9 | ~12000 µg/mL (≈ 37000 µM) | ~4700 µg/mL (≈ 14500 µM) | ~1500 µg/mL (≈ 4620 µM) | 540 min*μgA/mL | 8 μgA/mL |  |  |  |  |  |  |  |  |  | 
Nc1nc(C(=O)NCC2CC2)nc2c1[nH]c(=O)n2Cc1ccccc1 [Drug 1, 6-amino-9-benzyl-8-oxo-8,9-dihydro-7H-purine-2-carboxylic acid cyclopropylmethyl-amide] |  |  |  |  |  |  |  |  |  | ~3 µg/mL (≈ 8.87 µM) | 7.3 | 25 µg/mL (≈ 73.9 µM) | about 0.059 mgA/mL | 59 µg/mL (≈ 174 µM) | <0.1 µg/mL | 1 µg/mL | <88 µg·min/mL |  | 
Nc1nc(C(F)(F)F)cc2c1[nH]c(=O)n2Cc1ccccc1 [Drug 2, 4-amino-1-benzyl-6-trifluoromethyl-1,3-dihydro-imidazo[4,5-c]pyridine-2-one] |  |  |  |  |  |  |  |  |  |  | 11.3 |  |  |  |  |  |  | 1.0 µg/mL | 44 µg·min/mL
